Counter-ions that a name gives are not always drawn.
Tested on: Pseudomonas aeruginosa PAM1001
Test: microbe, parasite or virus in culture
Format: cell-based
Details: for Inhibition (%) of growth of P. aeruginosa PAM1001: Levofloxacin 0.25 μg/mL; for inhibition at 2.5 µg/mL / inhibition at 5 µg/mL / inhibition at 10 µg/mL / inhibition at 20 µg/mL / inhibition at 40 µg/mL: Pseudomonas aeruginosa, PAM1001, read-out: Inhibition (%) of growth of P. aeruginosa PAM1001
Protocol: For compounds labeled with the prefix ‘D’, potentiation is measured by inhibition of growth of Pseudomonas aeruginosa PAM1001 at varying concentrations of efflux pump inhibitors (EPIs) in the presence of levofloxacin (0.25 microg/mL). Bacteria are grown in Mueller Hinton Broth (MHB, Difco) with an initial inoculum of 1×10^6 CFU/mL. Kinetics of bacterial growth is monitored, during 18 h of incubation at 37° C., by measurement of the culture absorbance at 650 nm using a 96-well plate spectrophotometer (SpectraMax, Molecular Devices). The inhibitory effect of EPIs is expressed as a percentage of growth inhibition compared to a control bacterial culture grown in the presence of 0.25 microg/mL levofloxacin but without EPIs.

[1] = Concentration of Compound 2.5 μg/mL
[2] = Concentration of Compound 5 μg/mL
[3] = Concentration of Compound 10 μg/mL
[4] = Concentration of Compound 20 μg/mL
[5] = Concentration of Compound 40 μg/mL

Row | SMILES | Inhibition (%) of growth of P. aeruginosa PAM1001 [1] [%] | Inhibition (%) of growth of P. aeruginosa PAM1001 [2] [%] | Inhibition (%) of growth of P. aeruginosa PAM1001 [3] [%] | Inhibition (%) of growth of P. aeruginosa PAM1001 [4] [%] | Inhibition (%) of growth of P. aeruginosa PAM1001 [5] [%] | inhibition at 2.5 µg/mL [%] | inhibition at 5 µg/mL [%] | inhibition at 10 µg/mL [%] | inhibition at 20 µg/mL [%] | inhibition at 40 µg/mL [%]
1 | Cl.Cl.Cl.NCC(=O)N[C@H]1CN[C@H](C(=O)Nc2cnc3ccc(Cc4ccccc4)cc3c2)C1 (relative stereo) [Compound D327, trans-4-Glycylamino-L-Proline 3-(6-Benzyl)quinolyl-amide Trihydrochloride] | 20 | 19 | 99 | 100 | 100 |  |  |  |  | 
2 | Cl.Cl.NCC(=O)N[C@H]1CN[C@H](C(=O)N2CCN(c3ccc(Cl)cc3)CC2)C1 (relative stereo) [Compound D403, 1-(N-trans-4-Glycylamino-L-Prolyl)-4-(4-Chlorophenyl)piperazine Dihydrochloride] | 25 | 22 | 22 | 4 | 61 |  |  |  |  | 
3 | NCCC1CN[C@H](C(=O)N2C[C@H](NC(=O)[C@H](O)CCc3ccccc3)C[C@H]2C(=O)Nc2cnc3ccccc3c2)C1 (stereo partly drawn) [Compound D110, 4-(2-Aminoethyl)-Prolyl-trans-4-((R)-2-Hydroxy-4-Phenylbutyrylamino)-L-Proline 3-Quinolylamide Trihydrochloride] |  |  |  |  |  | 20 | 20 | 100 | 100 | 100
4 | NCCC[C@@H](N)C(=O)N1C[C@H](NC(=O)CCCc2ccccc2)C[C@H]1C(=O)Nc1ccc2c(c1)CCC2 [Compound D121, D-Ornithyl-trans-4-(4-Phenylbutanoyl)amino-L-Proline 5-Indanylamide] |  |  |  |  |  | 15 | 99 | 100 | 100 | 100
5 | NCCC[C@H](N)C(=O)N1C[C@@H](NC(=O)CCCc2ccccc2)C[C@H]1C(=O)Nc1ccc2c(c1)CCC2 [Compound D122, L-Ornithyl-cis-4-(4-phenylbutanoyl)amino-L-proline 5-Indanylamide] |  |  |  |  |  | 16 | 99 | 100 | 100 | 99
6 | NCCC[C@@H](N)C(=O)N1C[C@@H](NC(=O)CCCc2ccccc2)C[C@H]1C(=O)Nc1ccc2c(c1)CCC2 [Compound D124, D-Ornithylcis-4-(4-Phenylbutanoyl)amino-L-Proline 5-Indanylamide Dihydrochloride] |  |  |  |  |  | 19 | 100 | 100 | 100 | 100
7 | NCC(O)C[C@H](N)C(=O)N1C[C@H](NC(=O)CCCc2ccccc2)C[C@H]1C(=O)Nc1ccc2c(c1)CCC2 (stereo partly drawn) [Compound D125, 4-Hydroxy-L-Ornithyl-trans-4-(4-Phenylbutanoyl)amino-L-Proline 5-Indanylamide Dihydrochloride] |  |  |  |  |  | 15 | 100 | 100 | 100 | 100
8 | NCC(=O)N[C@H]1CN[C@H](C(=O)N[C@H](CCc2ccccc2)C(=O)Nc2cnc3ccccc3c2)C1 [Compound D201, trans-4-Glycylamino-L-Prolyl-D-Homophenylalanine 3-Quinolylamide Trihydrochloride] |  |  |  |  |  | 17 | 9 | 99 | 100 | 100
9 | N[C@H]1CN[C@H](C(=O)N[C@H](CCc2ccccc2)C(=O)Nc2cnc3ccccc3c2)C1 [Compound D202, trans-4-Amino-L-Prolyl-D-Homophenylalanine 3-Quinolylamide Trihydrochloride] |  |  |  |  |  |  |  |  | 21 | 86
10 | NCC(=O)N[C@H]1CN[C@H](C(=O)N[C@H](CCc2ccccc2)C(=O)Nc2ccc3c(c2)CCC3)C1 [Compound D203, trans-4-Glycylamino-L-Prolyl-D-Homophenylalanine 5-Indanylamide Dihydrochloride] |  |  |  |  |  | 18 | 17 | 100 | 100 | 100
11 | Cc1ccc(NC(=O)[C@@H](CCc2ccccc2)NC(=O)[C@@H]2C[C@@H](NC(=O)CN)CN2)cc1C [Compound D204, trans-4-Glycylamino-L-Prolyl-D-Homophenylalanine 3,4-Dimethylphenylamide Dihydrochloride] |  |  |  |  |  | 18 | 16 | 3 | 100 | 100
12 | Cc1cc(C)cc(NC(=O)[C@@H](CCc2ccccc2)NC(=O)[C@@H]2C[C@@H](NC(=O)CN)CN2)c1 [Compound D205, trans-4-Glycylamino-L-Prolyl-D-Homophenylalanine 3,5-Dimethylphenylamide Dihydrochloride] |  |  |  |  |  | 16 | 13 | 100 | 100 | 100
13 | Cc1cc(NC(=O)[C@@H](CCc2ccccc2)NC(=O)[C@@H]2C[C@@H](NC(=O)CN)CN2)ccc1Cl [Compound D206, trans-4-Glycylamino-L-Prolyl-D-Homophenylalanine 4-Chloro-3-Methylphenylamide Dihydrochloride] |  |  |  |  |  | 16 | 10 | 100 | 99 | 100
14 | NCC(=O)N[C@H]1CN[C@H](C(=O)NCC(=O)Nc2ccc(Cc3ccccc3)cc2)C1 [Compound D210, trans-4-Glycylamino-L-Prolylglycine 4-Benzylphenyl-amide Dihydrochloride] |  |  |  |  |  | 14 | 16 | 12 | 99 | 100
15 | NCC(=O)N[C@H]1CN[C@H](C(=O)Nc2ccc(Oc3ccccc3)cc2)C1 [Compound D301, trans-4Glycylamino-L-Proline 4-Phenoxyphenylamide Dihydrochloride] |  |  |  |  |  | 17 | 14 | 81 | 99 | 99
16 | Cc1ccc(Oc2ccc(NC(=O)[C@@H]3C[C@@H](NC(=O)CN)CN3)cc2)cc1 [Compound D302, trans-4-Glycylamino-L-Proline 4-(4′-Methylphenoxy)-phenylamide Dihydrochloride] |  |  |  |  |  | 22 | 17 | 97 | 100 | 100
17 | NCC(=O)N[C@H]1CN[C@H](C(=O)Nc2ccc(Oc3ccc(Cl)cc3)cc2)C1 [Compound D303, trans-4-Glycylamino-L-Proline 4-(4′-Chlorophenoxy)-phenylamide Dihydrochloride] |  |  |  |  |  | 18 | 91 | 100 | 100 | 99
18 | NCC(=O)N[C@H]1CN[C@H](C(=O)Nc2ccc(Nc3ccccc3)cc2)C1 [Compound D304, trans-4-Glycylamino-L-Proline 4-Phenylamino-phenylamide Dihydrochloride] |  |  |  |  |  | 17 | 15 | 10 | -11 | 100
19 | NCC(=O)N[C@H]1CN[C@H](C(=O)Nc2ccc(Cc3ccccc3)cc2)C1 [Compound D308, trans-4-Glycylamino-L-Proline 4-Benzylphenylamide Dihydrochloride] |  |  |  |  |  | 16 | 14 | 98 | 100 | 100
20 | CC(C)(C)c1ccc(NC(=O)[C@@H]2C[C@@H](NC(=O)CN)CN2)cc1 [Compound D313, trans-4-Glycylamino-L-Proline 4-tert-Butylphenyl-amide Dihydrochloride] |  |  |  |  |  | 17 | 17 | 96 | 99 | 99
21 | NCC(=O)N[C@H]1CN[C@H](C(=O)Nc2ccc(OCc3ccccc3)cc2)C1 [Compound D317, trans-4-Glycylamino-L-Proline 4-Benzyloxyphenyl-amide Dihydrochloride] |  |  |  |  |  | 20 | 18 | -1 | 99 | 99
22 | NCC(=O)N[C@H]1CN[C@H](C(=O)Nc2cccc(OCc3ccccc3)c2)C1 [Compound D318, trans-4-Glycylamino-L-Proline 3-Benzyloxyphenyl-amide Dihydrochloride] |  |  |  |  |  | 17 | 16 | 19 | 99 | 99
23 | NCC(=O)N[C@H]1CN[C@H](C(=O)Nc2ccc(CSc3ccccc3)cc2)C1 [Compound D319, trans-4-Glycylamino-L-Proline 4-(Phenylthiomethyl)-phenylamide Dihydrochloride] |  |  |  |  |  | 19 | 18 | 99 | 100 | 100

Reference: patent publication US6399629B1, “Efflux pump inhibitors” (priority 1998, dated 2002)
